Experimental data from patent US20060100168A1, “Method of treating cancer using adenosine and its analogs” (The Trustee of Boston University, priority 2002, published 2006).

Tests used:
MCF-7 cells [1] = assay: Thymidine incorporation assay; assay type: cell-based, human; conditions: treated 24 hours before thymidine
Method: (§1) Thymidine Incorporation Assay. Thymidine incorporation assays were performed as described (Zhang, Y., Wang, Z., and Ravid, K. The cell cycle in polyploid megakaryocytes is associated with reduced activity of cyclin B1-dependent cdc2 kinase. J Biol Chem, 271: 4266-4272, 1996) with modifications. Rat bone marrow cells were cultured in 25 cm^2 flasks at a concentration of 20×10^6 cells per 2 ml. After drug treatment for 24 hours, cells were incubated with ^3H-thymidine at a final concentration of 3 μCi/ml for 8 hours. For MCF-7 cells, cells were cultured in 6-well plates and incubated with ^3H-thymidine for 2 hours after drug treatment. Cells were divided into two portions, sixty percent of which were processed as described (Id.) to obtain tritium counts. The rest of the cells were lysed with Western blotting lysis buffer and protein concentrations were determined by Bio-Rad protein assay reagent (Bio-Rad, Hercules, Calif.). Tritium counts were normalized with corresponding protein concentrations to account for cell number variations.

ZR-75 cells = assay: Anchorage-independent growth (soft agar) assay; assay type: cell-based, human; conditions: ZR-75 soft agar; 100 μM; two weeks
Method: (§2) Anchorage-independent growth (soft agar) assay: Soft agar assay was performed as described (40) with the following modifications. Ligands were added into the bottom and top agar before plating into 6-well plates. Cells were treated with trypsin (Invitrogen, Carlsbad, Calif.) for 5 minutes in a 37° C. incubator and pipetted several times so that most cells were in single cell forms. Cells were counted with a hemacytometer (Hausser Scientific/VWR, So. Plainfield, N.J.), and 10,000 cells were mixed with top agar and plated into each well. After the top agar had solidified, two ml of medium containing the same treatment was added on top of the agar. This covering medium was changed every two days during culture. After two weeks of culture, each well was counted for the number of colonies formed on an Olympus IX70 microscope under 40× optical amplification. A cell colony was defined as any cluster of cells that contain more than 3 cells. The average of counts from 3 random optical fields for each well was taken as the colony number and analyzed. Each treatment was performed in triplicates. The averages and standard deviations shown in the figures were calculated based on triplicate experiments.

T47D cells [2] = assay: Anchorage-independent growth (soft agar) assay; assay type: cell-based, human; conditions: 100 μM, two weeks
Method: as §2

MCF-7 cells [3] = assay: Anchorage-independent growth (soft agar) assay; assay type: cell-based, human
Method: as §2

HeLa cells = assay: Anchorage-independent growth (soft agar) assay; assay type: cell-based, human; conditions: 100 μM, two weeks
Method: as §2

Hs578T cells = assay: Anchorage-independent growth (soft agar) assay; assay type: cell-based, human; conditions: 100 μM, two weeks
Method: as §2

pS2 mRNA = assay: Semi-quantitative RT-PCR of pS2 mRNA in MCF-7 cells; assay type: cell-based, human; conditions: 100 μM, observed after 8 to 12 hours
Method: Total RNA preparation and Reverse Transcription Polymerase Chain Reaction (RT-PCR): Total RNA from MCF-7 cells was prepared with Trizol (Invitrogen, Carlsbad, Calif.) as described before (41). For reverse transcription, 2 μg of RNA were used in a […] with random primers and M-MLV reverse transcriptase (Invitrogen, Carlsbad, Calif.), following the manufacturer's protocol. To control for possible contamination from genomic DNA in subsequent PCR reactions, control reverse transcription reactions were carried out under identical conditions, only without reverse transcriptase. After reverse transcription, 5% of the product was used in each PCR reaction. For the experiments analyzing A3 adenosine receptor (A3AR) expression, 27 cycles were used in the PCR reactions. Specific primers were designed for human A3AR, which match to two separate exons, according to genomic sequences (from GenBank). Sequences for the sense and antisense A3AR primers are: 5′tccatcatgtccttgctg3′ (SEQ ID NO: 1) and 5′gcacatgacaaccaggg3′ (SEQ ID NO.: 2). In the experiments analyzing estrogen receptor a (ERα) mRNA, semi-quantitative PCR reactions were carried out with 23 cycles for ERα primers and 19 cycles for GAPDH primers (used as a control). The cycle numbers were tested in previous experiments not to produce saturation effects. […]

CMV promoter = assay: Reporter gene assay pCMV-β-Gal in MCF-7 cells; assay type: cell-based, human; conditions: MCF-7 transfected with pCMV-β-Gal; 12 hours
Method: Transfections and Reporter Gene Assay: Transient transfection was performed using FuGene6 (Roche, Indianapolis, Ind.) transfection reagent according to manufacturer's protocol. Circular reporter plasmid pERE-Tk-Luc at 10 μg and 10 μg of pCMV-β-Gal (as a measure of efficiency of trasnfection) were transfected with 50 μl of FuGene6. Cells were split into 6 well plates 12 hours after transfection, and incubated overnight in fresh medium. […] Luciferase and β-galactosidase activities were measured as described before (43, 44).

[4] = test system: ERα protein in T47D cells; assay: ERα protein level in T47D cells; assay type: cell-based, human; conditions: not shown
Method: Western Blot Analysis: Cells were washed three times in cold 1×PBS, and collected by scraping on ice. Western blot analysis was performed as we described before with the chemiluminescence method (41). Antibodies used in this study were: ERα (NeoMarkers, Ab-15), Cyclin A (Santa Cruz Biotech, H-432), Cyclin B1 (Santa Cruz Biotech, H-433), Cyclin E (Upstate Biotech, HE-12), p27 (Santa Cruz Biotech, F-8). ERα antibody was used at 1:100 dilutions. Cyclin A, cyclin B1 and p27 antibodies were used at 1:500 dilutions. Cyclin E antibody was used at 1:1000 dilutions.

T47D cells [5] = assay: Anchorage-dependent growth assay; assay type: cell-based, human; conditions: 100 μM, three days
[6] = test system: primary rat bone marrow cells; assay: Thymidine incorporation assay; assay type: cell-based; conditions: 24 hours, IB-MECA at 100 μM
Method: as §1

CNC(=O)[C@H]1O[C@@H](n2cnc3c(NCc4cccc(I)c4)ncnc32)[C@H](O)[C@@H]1O [IB-MECA, N^6-(3-iodobenzyl)adenosine-5′-N-methyluronamide]
Thymidine incorporation decreased to (MCF-7 cells [1]): 28%
Colony formation, in words (ZR-75 cells): dramatic decrease in colony formation
Colony formation, in words (T47D cells [2]): dramatic decrease in colony formation
Concentration at which the cell growth inhibitory effect is observed (MCF-7 cells [3]; MCF-7): higher than 10 μM
Effect on anchorage-independent growth (colony formation), in words (MCF-7 cells [3]; MCF-7 soft agar, different concentrations, two weeks): dose-dependent inhibition
Colony formation, in words (HeLa cells): mild response
Colony formation, in words (Hs578T cells): dramatic decrease in colony formation
pS2 mRNA level (pS2 mRNA): reduced
CMV promoter activity (CMV promoter): did not show any decrease in activity
ERα protein levels, in words [4]: Reduction of ERα protein levels
Cell counts after treatment compared to day 0, in words (T47D cells [5]): affected more severely
Thymidine incorporation reduced to [6]: 68%
